Assay results taken from the NIST ThermoML archive (doi:10.1016/j.jct.2017.05.001).
± gives the expanded uncertainty stated by the source.

Assay: wn = mass fraction of the nth substance listed
Settings: Liquid; for mass density: Vibrating tube method; for viscosity: Falling or rolling sphere viscometry
[1] = 353.15 K, 80000 kPa, w1 = 0.1005
[2] = 353.15 K, 80000 kPa, w1 = 0.202
[3] = 353.15 K, 80000 kPa, w1 = 0.3005
[4] = 353.15 K, 80000 kPa, w1 = 0.3995
[5] = 353.15 K, 100000 kPa, w1 = 0.1005
[6] = 353.15 K, 100000 kPa, w1 = 0.202
[7] = 353.15 K, 100000 kPa, w1 = 0.3005
[8] = 353.15 K, 100000 kPa, w1 = 0.3995
[9] = 373.15 K, 5000 kPa, w1 = 0.1005
[10] = 373.15 K, 5000 kPa, w1 = 0.3005
[11] = 373.15 K, 5000 kPa, w1 = 0.3995
[12] = 373.15 K, 10000 kPa, w1 = 0.1005
[13] = 373.15 K, 10000 kPa, w1 = 0.202
[14] = 373.15 K, 10000 kPa, w1 = 0.3005
[15] = 373.15 K, 10000 kPa, w1 = 0.3995
[16] = 373.15 K, 15000 kPa, w1 = 0.1005
[17] = 373.15 K, 15000 kPa, w1 = 0.202
[18] = 373.15 K, 15000 kPa, w1 = 0.3005
[19] = 373.15 K, 15000 kPa, w1 = 0.3995
[20] = 373.15 K, 20000 kPa, w1 = 0.1005
[21] = 373.15 K, 20000 kPa, w1 = 0.202
[22] = 373.15 K, 20000 kPa, w1 = 0.3005
[23] = 373.15 K, 20000 kPa, w1 = 0.3995

`CN(C)CCO` [2-(N,N-dimethylamino)ethanol] + O gave a mass density (353.15 K, 60000 kPa, w1 = 0.3005) of 975.6 ± 0.7 kg/m3, a mass density (353.15 K, 60000 kPa, w1 = 0.3995) of 967.5 ± 0.7 kg/m3 and a mass density (353.15 K, 70000 kPa, w1 = 0.1005) of 993.6 ± 0.7 kg/m3. For the same molecule, the mass density (353.15 K, 70000 kPa, w1 = 0.202) was 986.6 ± 0.7 kg/m3, the mass density (353.15 K, 70000 kPa, w1 = 0.3005) was 979.3 ± 0.7 kg/m3 and the mass density (353.15 K, 70000 kPa, w1 = 0.3995) was 971.2 ± 0.7 kg/m3. The viscosity [1] was 0.4999 ± 0.016 mPa·s, the viscosity [2] was 0.6779 ± 0.022 mPa·s and the viscosity [3] was 0.9395 ± 0.031 mPa·s. The viscosity [4] was 1.281 ± 0.042 mPa·s, the mass density [1] was 997.4 ± 0.7 kg/m3 and the mass density [2] was 990.1 ± 0.7 kg/m3. The mass density [3] was 983 ± 0.7 kg/m3, the mass density [4] was 975.1 ± 0.7 kg/m3 and the mass density (353.15 K, 90000 kPa, w1 = 0.1005) was 1000.9 ± 0.7 kg/m3. For the same molecule, the mass density (353.15 K, 90000 kPa, w1 = 0.202) was 993.8 ± 0.7 kg/m3, the mass density (353.15 K, 90000 kPa, w1 = 0.3005) was 986.6 ± 0.7 kg/m3 and the mass density (353.15 K, 90000 kPa, w1 = 0.3995) was 978.7 ± 0.7 kg/m3. It also gave a viscosity [5] of 0.5096 ± 0.017 mPa·s, a viscosity [6] of 0.6942 ± 0.023 mPa·s and a viscosity [7] of 0.9726 ± 0.032 mPa·s. The viscosity [8] was 1.337 ± 0.044 mPa·s, the mass density [5] was 1004.6 ± 0.7 kg/m3 and the mass density [6] was 997.3 ± 0.7 kg/m3. It also gave a mass density [7] of 990.1 ± 0.7 kg/m3, a mass density [8] of 982.4 ± 0.7 kg/m3 and a mass density (353.15 K, 110000 kPa, w1 = 0.1005) of 1008.1 ± 0.7 kg/m3. It also gave a mass density (353.15 K, 110000 kPa, w1 = 0.202) of 1000.7 ± 0.7 kg/m3, a mass density (353.15 K, 110000 kPa, w1 = 0.3005) of 993.6 ± 0.7 kg/m3 and a mass density (353.15 K, 110000 kPa, w1 = 0.3995) of 985.9 ± 0.7 kg/m3. It also gave a mass density (353.15 K, 120000 kPa, w1 = 0.1005) of 1011.7 ± 0.7 kg/m3, a mass density (353.15 K, 120000 kPa, w1 = 0.202) of 1004.1 ± 0.7 kg/m3 and a mass density (353.15 K, 120000 kPa, w1 = 0.3005) of 997 ± 0.7 kg/m3. The mass density (353.15 K, 120000 kPa, w1 = 0.3995) was 989.3 ± 0.7 kg/m3, the mass density (353.15 K, 130000 kPa, w1 = 0.1005) was 1014.9 ± 0.7 kg/m3 and the mass density (353.15 K, 130000 kPa, w1 = 0.202) was 1007.5 ± 0.7 kg/m3. For the same molecule, the mass density (353.15 K, 130000 kPa, w1 = 0.3005) was 1000.3 ± 0.7 kg/m3, the mass density (353.15 K, 130000 kPa, w1 = 0.3995) was 992.7 ± 0.7 kg/m3 and the mass density (353.15 K, 140000 kPa, w1 = 0.1005) was 1018.3 ± 0.7 kg/m3. It also gave a mass density (353.15 K, 140000 kPa, w1 = 0.202) of 1010.8 ± 0.7 kg/m3, a mass density (353.15 K, 140000 kPa, w1 = 0.3005) of 1003.5 ± 0.7 kg/m3 and a mass density (353.15 K, 140000 kPa, w1 = 0.3995) of 996 ± 0.7 kg/m3. For the same molecule, the mass density (373.15 K, 100 kPa, w1 = 0.1005) was 950.7 ± 0.7 kg/m3, the mass density (373.15 K, 100 kPa, w1 = 0.202) was 942.4 ± 0.7 kg/m3 and the mass density (373.15 K, 100 kPa, w1 = 0.3005) was 933.3 ± 0.7 kg/m3. It also gave a mass density (373.15 K, 100 kPa, w1 = 0.3995) of 923.1 ± 0.7 kg/m3, a mass density (373.15 K, 500 kPa, w1 = 0.1005) of 950.9 ± 0.7 kg/m3 and a mass density (373.15 K, 500 kPa, w1 = 0.202) of 942.7 ± 0.7 kg/m3. The mass density (373.15 K, 500 kPa, w1 = 0.3005) was 933.6 ± 0.7 kg/m3, the mass density (373.15 K, 500 kPa, w1 = 0.3995) was 923.4 ± 0.7 kg/m3 and the mass density (373.15 K, 1000 kPa, w1 = 0.1005) was 951.2 ± 0.7 kg/m3. It also gave a mass density (373.15 K, 1000 kPa, w1 = 0.202) of 942.9 ± 0.7 kg/m3, a mass density (373.15 K, 1000 kPa, w1 = 0.3005) of 933.9 ± 0.7 kg/m3 and a mass density (373.15 K, 1000 kPa, w1 = 0.3995) of 923.6 ± 0.7 kg/m3. It also gave a mass density (373.15 K, 2000 kPa, w1 = 0.1005) of 951.7 ± 0.7 kg/m3, a mass density (373.15 K, 2000 kPa, w1 = 0.202) of 943.4 ± 0.7 kg/m3 and a mass density (373.15 K, 2000 kPa, w1 = 0.3005) of 934.4 ± 0.7 kg/m3. The mass density (373.15 K, 2000 kPa, w1 = 0.3995) was 924.2 ± 0.7 kg/m3, the viscosity [9] was 0.359 ± 0.012 mPa·s and the viscosity (373.15 K, 5000 kPa, w1 = 0.202) was 0.4516 ± 0.015 mPa·s. For the same molecule, the viscosity [10] was 0.5788 ± 0.019 mPa·s, the viscosity [11] was 0.7177 ± 0.024 mPa·s and the mass density [9] was 953 ± 0.7 kg/m3. For the same molecule, the mass density (373.15 K, 5000 kPa, w1 = 0.202) was 944.8 ± 0.7 kg/m3, the mass density [10] was 935.9 ± 0.7 kg/m3 and the mass density [11] was 925.8 ± 0.7 kg/m3. For the same molecule, the viscosity [12] was 0.3614 ± 0.012 mPa·s, the viscosity [13] was 0.4543 ± 0.015 mPa·s and the viscosity [14] was 0.5834 ± 0.019 mPa·s. It also gave a viscosity [15] of 0.7267 ± 0.024 mPa·s, a mass density [12] of 955.4 ± 0.7 kg/m3 and a mass density [13] of 947.2 ± 0.7 kg/m3. The mass density [14] was 938.4 ± 0.7 kg/m3, the mass density [15] was 928.4 ± 0.7 kg/m3 and the viscosity [16] was 0.3638 ± 0.012 mPa·s. The viscosity [17] was 0.4578 ± 0.015 mPa·s, the viscosity [18] was 0.5895 ± 0.019 mPa·s and the viscosity [19] was 0.7398 ± 0.024 mPa·s. The mass density [16] was 957.7 ± 0.7 kg/m3, the mass density [17] was 949.5 ± 0.7 kg/m3 and the mass density [18] was 940.8 ± 0.7 kg/m3. It also gave a mass density [19] of 931.1 ± 0.7 kg/m3, a viscosity [20] of 0.3659 ± 0.012 mPa·s and a viscosity [21] of 0.4624 ± 0.015 mPa·s. The viscosity [22] was 0.5971 ± 0.02 mPa·s, the viscosity [23] was 0.7525 ± 0.025 mPa·s and the mass density [20] was 959.9 ± 0.7 kg/m3. It also gave a mass density [21] of 951.8 ± 0.7 kg/m3, a mass density [22] of 943.2 ± 0.7 kg/m3 and a mass density [23] of 933.6 ± 0.7 kg/m3. It also gave a viscosity (373.15 K, 25000 kPa, w1 = 0.1005) of 0.3691 ± 0.012 mPa·s, a viscosity (373.15 K, 25000 kPa, w1 = 0.202) of 0.4659 ± 0.015 mPa·s and a viscosity (373.15 K, 25000 kPa, w1 = 0.3005) of 0.602 ± 0.02 mPa·s. For the same molecule, the viscosity (373.15 K, 25000 kPa, w1 = 0.3995) was 0.7633 ± 0.025 mPa·s.
